Results reported in BindingDB's records for doi:10.1021/jm50001a017 (1985).

Assays:
[1] = molecular target: Beta-2 adrenergic receptor (Mus musculus) (UniProt P18762); test: KD constant value was evaluated for the displacement of ICYP (iodocyanopindolol) binding
[2] = molecular target: Beta-2 adrenergic receptor (Mus musculus) (UniProt P18762); test: KD constant value was evaluated for the displacement of ICYP (iodocyanopindolol) binding in […] lymphoma cell

Beta-2 adrenergic receptor (Mus musculus), sequence (P18762 whole entry, looked up): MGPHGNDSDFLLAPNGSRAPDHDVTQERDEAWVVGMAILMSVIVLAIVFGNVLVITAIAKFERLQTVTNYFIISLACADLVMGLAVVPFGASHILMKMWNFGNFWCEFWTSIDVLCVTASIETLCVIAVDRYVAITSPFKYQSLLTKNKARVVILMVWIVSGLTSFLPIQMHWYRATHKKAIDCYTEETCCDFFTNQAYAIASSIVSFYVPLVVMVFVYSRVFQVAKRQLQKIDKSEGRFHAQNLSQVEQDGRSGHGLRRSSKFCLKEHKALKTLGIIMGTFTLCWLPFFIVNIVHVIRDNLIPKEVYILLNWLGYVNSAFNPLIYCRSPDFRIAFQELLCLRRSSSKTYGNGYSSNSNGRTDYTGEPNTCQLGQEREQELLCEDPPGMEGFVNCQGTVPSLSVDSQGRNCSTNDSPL

Kd [1]	Kd [2]	Compound
320 nM		Cc1ccc(C(=O)NCCCCC(C)NCC(O)c2ccc(O)c(O)c2)cc1 (stereo not drawn)
10000 nM		CC(CCCCN)NCC(O)c1ccc(O)c(O)c1 (stereo not drawn)
	470 nM	Cc1ccc(NC(=O)NCCCCC(C)NCC(O)c2ccc(O)c(O)c2)cc1 (stereo not drawn)
